Experimental data: patent publication US20050245399A1, “Pyrazole derivatives as herbicidal compositions containing them” (ISHIHARA SANGYO KAISHA, LTD., priority 2004, published 2005)

Key:
Format in all cases: in vivo
[1] = system: barnyardgrass (Echinochloa crus-galli L.): ECHCG; experiment: Test Example 1 pre-emergence herbicidal activity, ECHCG; conditions: visually observed 20th to 23rd day after application
Outline: (§1)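 Upland soil pot test. Formulated compound (wettable powder or emulsifiable concentrate) in water, 500 L/ha, sprayed one day after sowing before emergence; % control rated by eye on day 20–23.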

[2] = system: crabgrass (Digitaria sanguinalis L.): DIGSA; experiment: Test Example 1 pre-emergence herbicidal activity, DIGSA; conditions: visually observed 20th to 23rd day after application
Outline: as §1

[3] = system: green foxtail (Setaria viridis L.): SETVI; experiment: Test Example 1 pre-emergence herbicidal activity, SETVI; conditions: visually observed 20th to 23rd day after application
Outline: as §1

[4] = system: redroot pigweed (Amaranthus retroflexus L.): AMARE; experiment: Test Example 1 pre-emergence herbicidal activity, AMARE; conditions: visually observed 20th to 23rd day after application
Outline: as §1

[5] = system: prickly sida (Sida spinosa L.): SEDSP; experiment: Test Example 1 pre-emergence herbicidal activity, SIDSP; conditions: visually observed 20th to 23rd day after application
Outline: as §1

[6] = system: velvetleaf (Abutilon theophrasti): ABUTH; experiment: Test Example 1 pre-emergence herbicidal activity, ABUTH; conditions: visually observed 20th to 23rd day after application
Outline: as §1

[7] = system: rice (Oryza sativa L.): ORYSA; experiment: Test Example 1 pre-emergence herbicidal activity, ORYSA; conditions: visually observed 20th to 23rd day after application
Outline: as §1

[8] = system: wheat (Triticum aestivum L.): TRZAX; experiment: Test Example 1 pre-emergence herbicidal activity, TRZAX; conditions: visually observed 20th to 23rd day after application
Outline: as §1

[9] = system: corn (Zea mays L.): ZEAMX; experiment: Test Example 1 pre-emergence herbicidal activity, ZEAMX; conditions: visually observed 20th to 23rd day after application
Outline: as §1

[10] = system: soybean (Glycine max Merr.): GLXMA; experiment: Test Example 1 pre-emergence herbicidal activity, GLXMA; conditions: visually observed 20th to 23rd day after application
Outline: as §1

[11] = system: barnyardgrass (Echinochloa crus-galli L.), ECHCG; experiment: Test Example 2 post-emergence (foliage treatment) herbicidal activity, ECHCG; conditions: 63 g a.i./ha
Outline: (§2)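 Leaf stages at treatment differed per species: 1.1-2.1 for ECHCG, 1.0-2.0 for DIGSA, 0.1-1.5 for AMARE and 1.0-2 for ORYSA. Plants grew in pots of upland soil and were sprayed with wettable powder or emulsifiable concentrate in water (500 L/ha) plus spreader at 0.1% (v/v). Visual % control followed on days 20-23.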

[12] = system: crabgrass (Digitaria sanguinalis L.), DIGSA; experiment: Test Example 2 post-emergence (foliage treatment) herbicidal activity, DIGSA; conditions: 63 g a.i./ha
Outline: as §2

[13] = system: green foxtail (Setaria viridis L.), SETVI; experiment: Test Example 2 post-emergence (foliage treatment) herbicidal activity, SETVI; conditions: 63 g a.i./ha
Outline: (§3)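 Foliar spray of formulated compound (500 L/ha dilution water, 0.1% v/v spreader) onto young potted plants at defined leaf stages. Scored 0-100% by visual inspection 20-23 d post-spray.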

[14] = system: prickly sida (Sida spinosa L.), SIDSP; experiment: Test Example 2 post-emergence (foliage treatment) herbicidal activity, SIDSP; conditions: 63 g a.i./ha
Outline: as §3

[15] = system: velvetleaf (Abutilon theophrasti), ABUTH; experiment: Test Example 2 post-emergence (foliage treatment) herbicidal activity, ABUTH; conditions: 63 g a.i./ha
Outline: as §3

[16] = system: rice (Oryza sativa L.), ORYSA; experiment: Test Example 2 post-emergence (foliage treatment) herbicidal activity, ORYSA; conditions: 63 g a.i./ha
Outline: as §2

[17] = system: wheat (Triticum aestivum L.), TRZAX; experiment: Test Example 2 post-emergence (foliage treatment) herbicidal activity, TRZAX; conditions: 63 g a.i./ha
Outline: as §3

[18] = system: corn (Zea mays L.), ZEAMX; experiment: Test Example 2 post-emergence (foliage treatment) herbicidal activity, ZEAMX; conditions: 63 g a.i./ha
Outline: as §3

[19] = system: soybean (Glycine max Merr.), GLXMA; experiment: Test Example 2 post-emergence (foliage treatment) herbicidal activity, GLXMA; conditions: 63 g a.i./ha
Outline: as §3

[20] = system: barnyardgrass (Echinochiloa oryzicola: ECHOR); experiment: Test Example 3 water application herbicidal activity (paddy), ECHOR; conditions: 63 g a.i./ha, water application under submerged condition at 0.5 leaf stage, visually observed 14th day after application; 0 = untreated control, 100 = complete kill
Text: (§4) Paddy field soil was put into a 1/1,000,000 ha pot and seeds of barnyardgrass (Echinochiloa oryzicola: ECHOR) and japanese bulrush (Scirpus juncoides: SCPJO) were sown and slightly covered with soil. Then the pot was left to stand still in a greenhouse in a state where the depth of flooding water was from 0.5 to 1 cm, and one day later, tubers of japanese ribbon wapato (Sagittaria pygmaea: SA GPY) were planted. Thereafter, the depth of flooding water was maintained at a level of from 3 to 4 cm, and when barnyardgrass and japanese bulrush reached a 0.5 leaf stage, an aqueous diluted solution of a wettable powder or emulsifiable concentrate having the compound of the present invention formulated in accordance with a usual formulation method, was uniformly applied under submerged condition by a pipette so that the dose of the active ingredient would be at a predetermined level. On the other hand, paddy filed soil was put into a 1/1,000,000 ha pot and puddled and leveled, and the depth of flooding water was from 3 to 4 cm. One day later, rice (Oryza sativa L.: ORYSA) of 2 leaf stage was transplanted in a depth of 3 cm. On the 4th day after the transplantation, the compound of the present invention was applied in the same manner as described above. On the 14th day after the application of the herbicide, the growth of barnyardgrass, japanese burlush and japanese ribbon wapato was visually observed and on the 21st day after the application of the herbicide, the growth of rice was visually observed, and the herbicidal effects were evaluated by growth controlling degrees (%) ranging from 0 (equivalent to the untreated control) to 100 (complete kill), whereby the results shown in Table 6, were obtained. Compound Nos. in Table 6 correspond to Compound Nos. in Table 1 and 2 given hereinbefore.

[21] = system: japanese bulrush (Scirpus juncoides: SCPJO); experiment: Test Example 3 water application herbicidal activity (paddy), SCPJO; conditions: 63 g a.i./ha, water application under submerged condition at 0.5 leaf stage, visually observed 14th day after application; 0 = untreated control, 100 = complete kill
Text: as §4

[22] = system: japanese ribbon wapato (Sagittaria pygmaea: SA GPY); experiment: Test Example 3 water application herbicidal activity (paddy), SAGPY; conditions: 63 g a.i./ha, water application under submerged condition, tubers planted, visually observed 14th day after application; 0 = untreated control, 100 = complete kill
Text: as §4

[23] = system: rice (Oryza sativa L.: ORYSA); experiment: Test Example 3 water application herbicidal activity (paddy), transplanted rice ORYSA; conditions: 63 g a.i./ha, water application 4th day after transplantation of 2 leaf stage rice, visually observed 21st day after application; 0 = untreated control, 100 = complete kill
Text: as §4

[24] = system: redroot pigweed (Amaranthus retroflexus L.), AMARE; experiment: Test Example 2 post-emergence (foliage treatment) herbicidal activity, AMARE; conditions: 63 g a.i./ha
Outline: as §2

Compound	Pre-emergence Herbicidal Activity ECHCG (growth controlling degree) ([1]; Rate 63 g a.i./ha) [%]	Pre-emergence Herbicidal Activity DIGSP (growth controlling degree) ([2]; Rate 63 g a.i./ha) [%]	Pre-emergence Herbicidal Activity SETVI (growth controlling degree) ([3]; Rate 63 g a.i./ha) [%]	Pre-emergence Herbicidal Activity AMARE (growth controlling degree) ([4]; Rate 63 g a.i./ha) [%]	Pre-emergence Herbicidal Activity SIDSP (growth controlling degree) ([5]; Rate 63 g a.i./ha) [%]	Pre-emergence Herbicidal Activity ABUTH (growth controlling degree) ([6]; Rate 63 g a.i./ha) [%]	Pre-emergence Herbicidal Activity ORYSA (growth controlling degree) ([7]; Rate 63 g a.i./ha) [%]	Pre-emergence Herbicidal Activity TRZAX (growth controlling degree) ([8]; Rate 63 g a.i./ha) [%]	growth controlling degree, ECHCO [11] [%]	growth controlling degree, DIGSP [12] [%]	growth controlling degree, SETVI [13] [%]	growth controlling degree, SIDSP [14] [%]	growth controlling degree, ABUTH [15] [%]	growth controlling degree, ORYSA [16] [%]	growth controlling degree, TRZAX [17] [%]	growth controlling degree, ZEAMX [18] [%]	growth controlling degree, GLXMA [19] [%]	growth controlling degrees (%) ECHOR [20] [%]	growth controlling degrees (%) SCPJO [21] [%]	growth controlling degrees (%) ORYSA [23] [%]	also measured
COCC(=O)Nc1c(OC)c(Cl)cc(F)c1-c1nn(C)c(OC(F)F)c1Cl [Compound 1-16]	100	100	100	100	100	100	40	10	80	80	100	100	100	80	50	70	95	100	98	70	Pre-emergence Herbicidal Activity ZEAMX (growth controlling degree) ([9]; Rate 63 g a.i./ha): 40%; Pre-emergence Herbicidal Activity GLXMA (growth controlling degree) ([10]; Rate 63 g a.i./ha): 10%; growth controlling degrees (%) SAGPY [22]: 100%
COc1c(Cl)cc(F)c(-c2nn(C)c(OC(F)F)c2Cl)c1N(C(=O)OCCCl)C(=O)OCCCl [Compound 1-52]									50	30	30	90	80	40	10	10	30	100	50	20	Pre-emergence Herbicidal Activity ECHCG (growth controlling degree) ([1]; Rate 125 g a.i./ha): 0%; Pre-emergence Herbicidal Activity DIGSP (growth controlling degree) ([2]; Rate 125 g a.i./ha): 30%; Pre-emergence Herbicidal Activity SETVI (growth controlling degree) ([3]; Rate 125 g a.i./ha): 50%; Pre-emergence Herbicidal Activity AMARE (growth controlling degree) ([4]; Rate 125 g a.i./ha): 100%; Pre-emergence Herbicidal Activity SIDSP (growth controlling degree) ([5]; Rate 125 g a.i./ha): 0%; Pre-emergence Herbicidal Activity ABUTH (growth controlling degree) ([6]; Rate 125 g a.i./ha): 0%; Pre-emergence Herbicidal Activity ORYSA (growth controlling degree) ([7]; Rate 125 g a.i./ha): 0%; Pre-emergence Herbicidal Activity TRZAX (growth controlling degree) ([8]; Rate 125 g a.i./ha): 0%; Pre-emergence Herbicidal Activity ZEAMX (growth controlling degree) ([9]; Rate 125 g a.i./ha): 0%; Pre-emergence Herbicidal Activity GLXMA (growth controlling degree) ([10]; Rate 125 g a.i./ha): 0%; growth controlling degrees (%) SAGPY [22]: 0%
COc1c(Cl)cc(F)c(-c2nn(C)c(OC(F)F)c2Cl)c1NC(=O)OCC(C)C [Compound 1-64]	40	90	80	100	80	60	10	10	90	70	100	100	100	30	30	30	50	100	70	40	Pre-emergence Herbicidal Activity ZEAMX (growth controlling degree) ([9]; Rate 63 g a.i./ha): 0%; Pre-emergence Herbicidal Activity GLXMA (growth controlling degree) ([10]; Rate 63 g a.i./ha): 0%; growth controlling degree, AMARE [24]: 100%
CCCOC(=O)Nc1c(OC)c(Cl)cc(F)c1-c1nn(C)c(OC(F)F)c1Cl [Compound 1-72]	98	100	100	100	100	100	40	40	80	80		100	100	60	20	40	70	100	60		Pre-emergence Herbicidal Activity ZEAMX (growth controlling degree) ([9]; Rate 63 g a.i./ha): 10%; Pre-emergence Herbicidal Activity GLXMA (growth controlling degree) ([10]; Rate 63 g a.i./ha): 0%; growth controlling degree, AMARE [24]: 100%; growth controlling degrees (%) SAGPY [22]: 100%
Cn1nc(-c2c(F)cc(Cl)c(OC(F)F)c2N(C=O)Cc2ccccc2)c(Cl)c1OC(F)F [Compound 1-86]									0	30	10	60	0	0	0	0	40	60	50	10	Pre-emergence Herbicidal Activity ECHCG (growth controlling degree) ([1]; Rate 125 g a.i./ha): 0%; Pre-emergence Herbicidal Activity DIGSP (growth controlling degree) ([2]; Rate 125 g a.i./ha): 0%; Pre-emergence Herbicidal Activity SETVI (growth controlling degree) ([3]; Rate 125 g a.i./ha): 0%; Pre-emergence Herbicidal Activity AMARE (growth controlling degree) ([4]; Rate 125 g a.i./ha): 30%; Pre-emergence Herbicidal Activity SIDSP (growth controlling degree) ([5]; Rate 125 g a.i./ha): 0%; Pre-emergence Herbicidal Activity ABUTH (growth controlling degree) ([6]; Rate 125 g a.i./ha): 0%; Pre-emergence Herbicidal Activity ORYSA (growth controlling degree) ([7]; Rate 125 g a.i./ha): 0%; Pre-emergence Herbicidal Activity TRZAX (growth controlling degree) ([8]; Rate 125 g a.i./ha): 0%; Pre-emergence Herbicidal Activity ZEAMX (growth controlling degree) ([9]; Rate 125 g a.i./ha): 0%; Pre-emergence Herbicidal Activity GLXMA (growth controlling degree) ([10]; Rate 125 g a.i./ha): 0%; growth controlling degree, AMARE [24]: 100%
